Measurements published in PubChem BioAssay AID2060598 (Global Health Medicines R&D, GSK, 2025).

Biological target: P. falciparum 3D7A growth, LDH activity
Test: parasite LDH-based blood-stage antimalarial activity – strain 3D7A, LDH readout, dose response (AID 2060598)

Structure (SMILES) | IC50 (restricted media, 72 h) [nM] | IC50 (standard media with serum) [nM]
O=C(Nc1cccnc1)C1CCN(c2ccc(-c3ccco3)nn2)CC1 | 794 | 7940
N#Cc1c(N)n[nH]c1CCCNC(=O)c1ccc(Cl)c(S(=O)(=O)N2CCCC2)c1 | 50.1 | 631
COc1ccc(-c2ccc(CNC(=O)c3cc(C(=O)NC(C)C)ccc3Cl)cc2)cn1 | 63.1 | 631
O=C(/C=C/c1n[nH]c2ccccc12)N1CCN(c2cnccn2)CC1 | 158 | 2000
O=C(Nc1nnc(-c2ccccc2)s1)N1CCCN(c2ncccn2)CC1 | 20 | 200
Cc1cc(-c2cnc(N3CCn4c(nnc4C4CC4)C3)nc2-c2ccncc2)on1 | 100 | 1580
CCCOc1cncc(S(=O)(=O)c2ccc3c(c2)CCN(C2CCC2)CC3)c1 | 316 | 3980
CN(C(=O)C[C@@H]1CCN(C(=O)C2CC2)C1)c1ccc(-c2ccc(C#N)cc2)cc1 | 251 | 3980
CCN(C(=O)C=Cc1ccc(S(=O)(=O)N2CCc3ccccc32)cc1)C1CCS(=O)(=O)C1 (stereo unspecified) | 200 | 2510
CC(C)Oc1ccc(-c2nnc(Oc3cccc4c3CCN(CCC(N)=O)CC4)s2)cc1C#N | 501 | 10000
O=C(c1cc2ccccc2[nH]1)N1CCC2(CC(Nc3ccncn3)C2)C1 (stereo unspecified) | 31.6 | 316
O=C1CSc2ccc(C(=O)Nc3ccc(-c4nnc5n4CCCCC5)cc3)cc2N1 | 501 | 5010
O=C(CCN=C1NS(=O)(=O)c2ccccc21)Nc1ccc(S(=O)(=O)N2CCCC2)cc1 | 794 | 7940
Cc1ccc2nc(CCNC(=O)CCS(=O)(=O)c3ccc4c(c3)CC(=O)N4C)[nH]c2c1 | 31.6 | 501
O=C(CCCc1ncc(-c2ccccc2)o1)N1CCOC2CCCC21 (stereo unspecified) | 158 | 2000
O=C(Nc1ccc(N2CCCC2)nc1)N1CCN(c2cnccn2)CC1 | 79.4 | 2000
O=C(/C=C/c1n[nH]c2ccccc12)Nc1ccc(C(=O)NCCN2CCOCC2)cc1 | 316 | 3160

Structure (SMILES) | IC50 (restricted media, 72 h) [nM] | IC50 (standard media with serum) [nM]
O=C(CCCc1c[nH]c2ccccc12)N1CCN(c2ccc(N3CCOCC3)nn2)CC1 | 398 | 5010
COc1ccc(NC(=O)c2ccc3c(=O)n(Cc4ccccn4)cnc3c2)cc1N1CCN(C)CC1 | 398 | 3980
Cn1cccc1C1CCCN1CC(=O)Nc1ccc(S(=O)(=O)N2CCOCC2)cc1 (stereo unspecified) | 794 | 10000
Cc1nn(C2CCS(=O)(=O)C2)c(C)c1CN(C)C(=O)CN1C(=O)NC2(CCCCC2C)C1=O (stereo unspecified) | 63.1 | 631
COc1ccc(C(=O)N2CCN(c3ccc(-n4cccn4)nn3)CC2)cc1OC | 126 | 1580
Cc1cc(Cl)ccc1OCC(=O)N1CCc2c(cnc(C)c2CNC(=O)c2ccc(=O)[nH]n2)C1 | 20 | 316
O=C(NCCCN1CCc2ccccc21)c1ccc2c(=O)n(Cc3ccccn3)cnc2c1 | 63.1 | 794
O=C1CCCN1c1ccc(S(=O)(=O)N2CCN(S(=O)(=O)c3ccccc3)CC2)cc1 | 501 | > 50100
O=C(CCn1nnc2cc(S(=O)(=O)N3CCCC3)ccc21)N1CCN(c2ccccn2)CC1 | 126 | 1260
COc1ccc2oc(C(=O)NC3CCC(Oc4ncccn4)CC3)cc2c1 (stereo unspecified) | 126 | 1260
CCN(CC)c1ccc(C(=O)COc2ccc3c(c2)CCNCC3)cc1 | 63.1 | 1000
O=C(COc1ccc(Br)cc1F)N1CCN(c2cnccn2)CC1 | 251 | 2510
NC(=O)CC1CCN(C(=O)c2sc3sccc3c2Cl)CC1 | 316 | 3160
COc1ccc(N2CCN(C(=O)c3csc(Nc4ccccc4S(C)(=O)=O)n3)CC2)nc1 | 79.4 | 1000
N#Cc1cccc(NC(=O)CNc2ccccc2C(=O)NC2CC2)c1 | 39.8 | 398
Cc1cccc(-c2nn(Cc3ccc(C(=O)NCCCO)cc3)c(=O)cc2N2CCCC(CO)C2)c1 (stereo unspecified) | 794 | 7940
